Assay results from US11046696B2, “Fused pyrimidine compound or salt thereof” (TAIHO PHARMACEUTICAL CO., LTD., priority 2016, dated 2021).

Test: Evaluation of stability in liver microsome
Settings: mouse liver microsome, 1 μM, 37° C. for 30 minutes

Row | Remaining (%) | Structure (SMILES)
1 | 67 | COCc1ccc(NC(=O)c2c(C#Cc3ccn(C)n3)n(C3(C)CC3)c3ncnc(N)c23)cc1 [Example 92, 4-amino-N-(4-(methoxymethyl)phenyl)-6-((1-methyl-1H-pyrazol-3-yl)ethynyl)-7-(1-methylcyclopropyl)-7H-pyrrolo[2,3-d]pyrimidine-5-carboxamide]
2 | 67 | COCc1ccc(NC(=O)c2c(C#CCC3NC(=O)NC3=O)n(C3(C)CC3)c3ncnc(N)c23)cc1 (stereo not drawn) [Example 156, 4-amino-6-(3-(2,5-dioxoimidazolidin-4-yl)prop-1-yn-1-yl)-N-(4-(methoxymethyl)phenyl)-7-(1-methylcyclopropyl)-7H-pyrrolo[2,3-d]pyrimidine-5-carboxamide]
3 | 77 | COCc1ccc(NC(=O)c2c(C#CC3CCN(C)CC3)n(C3(C)CC3)c3ncnc(N)c23)cc1 [Example 183, 4-amino-N-(4-(methoxymethyl)phenyl)-7-(1-methylcyclopropyl)-6-((1-methylpiperidin-4-yl)ethynyl)-7H-pyrrolo[2,3-d]pyrimidine-5-carboxamide]
4 | 67 | COCc1ccc(NC(=O)c2c(OCC3CCCO3)n(C3(C)CC3)c3ncnc(N)c23)cc1 (stereo not drawn) [Example 135, 4-amino-N-(4-(methoxymethyl)phenyl)-7-(1-methylcyclopropyl)-6-((tetrahydrofuran-2-yl)methoxy)-7H-pyrrolo[2,3-d]pyrimidine-5-carboxamide]
5 | 77 | COCc1ccc(NC(=O)c2c(C#CCN3CCOCC3)n(C3(C)CC3)c3ncnc(N)c23)cc1F [Example 206, 4-amino-N-(3-fluoro-4-(methoxymethyl)phenyl)-7-(1-methylcyclopropyl)-6-(3-morpholinoprop-1-yn-1-yl)-7H-pyrrolo[2,3-d]pyrimidine-5-carboxamide]
6 | 65 | COCc1ccc(NC(=O)c2c(C#Cc3cnc4cccnn34)n(C3(C)CC3)c3ncnc(N)c23)cc1 [Example 91, 4-amino-6-(imidazo[1,2-b]pyridazin-3-ylethynyl)-N-[4-(methoxymethyl)phenyl]-7-(1-methylcyclopropyl)-7H-pyrrolo[2,3-d]pyrimidine-5-carboxamide]
7 | 68 | COCc1ccc(NC(=O)c2c(/C=C/CO)n(C3(C)CC3)c3ncnc(N)c23)cc1 [Example 109, (E)-4-amino-6-(3-hydroxyprop-1-en-1-yl)-N-(4-(methoxymethyl)phenyl)-7-(1-methylcyclopropyl)-7H-pyrrolo[2,3-d]pyrimidine-5-carboxamide]
8 | 72 | COCc1ccc(NC(=O)c2c(C#CC(C)(C)O)n(C3(C)CC3)c3ncnc(N)c23)cc1 [Example 174, 4-amino-6-(3-hydroxy-3-methylbut-1-yn-1-yl)-N-(4-(methoxymethyl)phenyl)-7-(1-methylcyclopropyl)-7H-pyrrolo[2,3-d]pyrimidine-5-carboxamide]
9 | 81 | COCc1ccc(NC(=O)c2c(C)n(C(C)(C)C)c3ncnc(N)c23)cc1 [Example 60, 4-amino-7-(tert-butyl)-N-(4-(methoxymethyl)phenyl)-6-methyl-7H-pyrrolo[2,3-d]pyrimidine-5-carboxamide]
10 | 84 | COCc1ccc(NC(=O)c2c(C#Cc3cccc(F)c3)n(C3(C)CC3)c3ncnc(N)c23)cc1 [Example 130, 4-amino-6-((3-fluorophenyl)ethynyl)-N-(4-(methoxymethyl)phenyl)-7-(1-methylcyclopropyl)-7H-pyrrolo[2,3-d]pyrimidine-5-carboxamide]
11 | 68 | COCc1ccc(NC(=O)c2c(C#CCCN3CCOCC3)n(C3(C)CC3)c3ncnc(N)c23)cc1 [Example 187, 4-amino-N-(4-(methoxymethyl)phenyl)-7-(1-methylcyclopropyl)-6-(4-morpholinobut-1-yn-1-yl)-7H-pyrrolo[2,3-d]pyrimidine-5-carboxamide]
12 | 74 | COCc1ccc(NC(=O)c2c(C#CCC3(O)COC3)n(C3(C)CC3)c3ncnc(N)c23)cc1 [Example 125, 4-amino-6-(3-(3-hydroxyoxetan-3-yl)prop-1-yn-1-yl)-N-(4-(methoxymethyl)phenyl)-7-(1-methylcyclopropyl)-7H-pyrrolo[2,3-d]pyrimidine-5-carboxamide]
13 | 70 | COCc1ccc(NC(=O)c2c(C#Cc3cccs3)n(C3(C)CC3)c3ncnc(N)c23)cc1 [Example 119, 4-amino-N-(4-(methoxymethyl)phenyl)-7-(1-methylcyclopropyl)-6-(thiophen-2-ylethynyl)-7H-pyrrolo[2,3-d]pyrimidine-5-carboxamide]
14 | 67 | COCc1ccc(NC(=O)c2c(C#Cc3cnn(C)c3)n(C3(C)CC3)c3ncnc(N)c23)cc1 [Example 90, 4-amino-N-[4-(methoxymethyl)phenyl]-6-((1-methyl-1H-pyrazol-4-yl)ethynyl)-7-(1-methylcyclopropyl)-7H-pyrrolo[2,3-d]pyrimidine-5-carboxamide]
15 | 60 | COCc1ccc(NC(=O)c2c(OCC3CCCCO3)n(C3(C)CC3)c3ncnc(N)c23)cc1 (stereo not drawn) [Example 102, 4-amino-N-(4-(methoxymethyl)phenyl)-7-(1-methylcyclopropyl)-6-((tetrahydro-2H-pyran-2-yl)methoxy)-7H-pyrrolo[2,3-d]pyrimidine-5-carboxamide]
16 | 63 | COCc1ccc(NC(=O)c2c(C#CC3CCOCC3)n(C3(C)CC3)c3ncnc(N)c23)cc1 [Example 87, 4-amino-N-[4-(methoxymethyl)phenyl]-7-(1-methylcyclopropyl)-6-((tetrahydro-2H-pyran-4-yl)ethynyl)-7H-pyrrolo[2,3-d]pyrimidine-5-carboxamide]
17 | 79 | C=Cc1c(C(=O)Nc2ccc(COC)cc2)c2c(N)ncnc2n1C1(C)CC1 [Example 65, 4-amino-N-(4-(methoxymethyl)phenyl)-7-(1-methylcyclopropyl)-6-vinyl-7H-pyrrolo[2,3-d]pyrimidine-5-carboxamide]
18 | 59 | CCC(O)CC#Cc1c(C(=O)Nc2ccc(COC)cc2)c2c(N)ncnc2n1C1(C)CC1 (stereo not drawn) [Example 157, 4-amino-6-(4-hydroxyhex-1-yn-1-yl)-N-(4-(methoxymethyl)phenyl)-7-(1-methylcyclopropyl)-7H-pyrrolo[2,3-d]pyrimidine-5-carboxamide]
19 | 74 | COCc1ccc(NC(=O)c2c(C#Cc3c[nH]c4ccccc34)n(C3(C)CC3)c3ncnc(N)c23)cc1 [Example 121, 6-((1H-indol-3-yl)ethynyl)-4-amino-N-(4-(methoxymethyl)phenyl)-7-(1-methylcyclopropyl)-7H-pyrrolo[2,3-d]pyrimidine-5-carboxamide]
20 | 56 | COCc1ccc(NC(=O)c2cn(C(C)(C)CF)c3ncnc(N)c23)cc1F [Example 41, 4-amino-7-(1-fluoro-2-methylpropan-2-yl)-N-(3-fluoro-4-(methoxymethyl)phenyl)-7H-pyrrolo[2,3-d]pyrimidine-5-carboxamide]
21 | 66 | COCc1ccc(NC(=O)c2c(C#Cc3cncc(F)c3)n(C3(C)CC3)c3ncnc(N)c23)cc1 [Example 175, 4-amino-6-((5-fluoropyridin-3-yl)ethynyl)-N-(4-(methoxymethyl)phenyl)-7-(1-methylcyclopropyl)-7H-pyrrolo[2,3-d]pyrimidine-5-carboxamide]
22 | 52 | COCc1ccc(NC(=O)c2c(C#CC(O)C3CC3)n(C3(C)CC3)c3ncnc(N)c23)cc1 (stereo not drawn) [Example 104, 4-amino-6-(3-cyclopropyl-3-hydroxyprop-1-yn-1-yl)-N-(4-(methoxymethyl)phenyl)-7-(1-methylcyclopropyl)-7H-pyrrolo[2,3-d]pyrimidine-5-carboxamide]
23 | 53 | COCc1ccc(NC(=O)c2c(OCC(C)(C)OC)n(C3(C)CC3)c3ncnc(N)c23)cc1 [Example 137, 4-amino-6-(2-methoxy-2-methylpropoxy)-N-(4-(methoxymethyl)phenyl)-7-(1-methylcyclopropyl)-7H-pyrrolo[2,3-d]pyrimidine-5-carboxamide]
24 | 70 | COCc1ccc(NC(=O)c2c(SC)n(C3(C)CC3)c3ncnc(N)c23)cc1 [Example 133, 4-amino-N-(4-methoxymethyl)phenyl-7-(1-methylcyclopropyl)-6-(methylthio)-7H-pyrrolo[2,3-d]pyrimidine-5-carboxamide]
25 | 78 | COCc1ccc(NC(=O)c2c(-c3cnn(C)c3)n(C3(C)CC3)c3ncnc(N)c23)cc1 [Example 150, 4-amino-N-(4-(methoxymethyl)phenyl)-6-(1-methyl-1H-pyrazol-4-yl)-7-(1-methylcyclopropyl)-7H-pyrrolo[2,3-d]pyrimidine-5-carboxamide]
26 | 86 | COCc1ccc(NC(=O)c2c(OC)n(C3(C)CC3)c3ncnc(N)c23)cc1 [Example 57, 4-amino-6-methoxy-N-[4-(methoxymethyl)phenyl]-7-(1-methylcyclopropyl)-7H-pyrrolo[2,3-d]pyrimidine-5-carboxamide]
27 | 70 | COCc1ccc(NC(=O)c2c(C#Cc3cncc(C#N)c3)n(C3(C)CC3)c3ncnc(N)c23)cc1 [Example 195, 4-amino-6-((5-cyanopyridin-3-yl)ethynyl)-N-(4-(methoxymethyl)phenyl)-7-(1-methylcyclopropyl)-7H-pyrrolo[2,3-d]pyrimidine-5-carboxamide]
28 | 68 | COCc1ccc(NC(=O)c2c(OCC3CCOC3)n(C3(C)CC3)c3ncnc(N)c23)cc1 (stereo not drawn) [Example 101, 4-amino-N-(4-(methoxymethyl)phenyl)-7-(1-methylcyclopropyl)-6-((tetrahydrofuran-3-yl)methoxy)-7H-pyrrolo[2,3-d]pyrimidine-5-carboxamide]
29 | 68 | COCc1ccc(NC(=O)c2c(OCC3CCOCC3)n(C3(C)CC3)c3ncnc(N)c23)cc1 [Example 141, 4-amino-N-(4-(methoxymethyl)phenyl)-7-(1-methylcyclopropyl)-6-((tetrahydro-2H-pyran-4-yl)methoxy)-7H-pyrrolo[2,3-d]pyrimidine-5-carboxamide]
30 | 62 | C=C(C)c1c(C(=O)Nc2ccc(COC)cc2)c2c(N)ncnc2n1C1(C)CC1 [Example 149, 4-amino-N-(4-(methoxymethyl)phenyl)-7-(1-methylcyclopropyl)-6-(prop-1-en-2-yl)-7H-pyrrolo[2,3-d]pyrimidine-5-carboxamide]
